The text below walks through data of patent US20230114728A1 (Venatorx Pharmaceuticals, Inc., priority 2019, published 2023).

The target in one assay is T1, E. coli K12 PBP3 (Escherichia coli, UniProt P0AD68).
T1 construct: made in house
The assay can be described thus: biochemical. In kind it is binding. In outline:
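Fluorescence polarization (ex 490/em 520 nm) competition of inhibitors against Bocillin-FL at 0.1 μM, read up to 60 min. Final PBP levels: E. coli PBP3 1.5 μM; A. baumannii PBP2 2.5 μM, PBP3 0.2 μM in Tris pH 8.0/NaCl/glycerol/Tween 20; N. gonorrhoeae PBP2 […] in Hepes pH 8.0/NaCl/glycerol. EC50 = concentration halving PBP-bound Bocillin-FL.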

The target in a further assay is T2, P. aeruginosa PBP3 (Pseudomonas aeruginosa, UniProt G3XD46).
T2 construct: made in house
The assay can be described thus: Bocillin-FL fluorescence polarization competition binding assay, P. aeruginosa PBP3. To be noted: fluorescence polarization competition binding assay using Bocillin-FL. The essentials: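 Binding of boronic acid inhibitors to purified Pseudomonas aeruginosa (PA01) PBP3 was measured by fluorescence polarization competition with Bocillin-FL, a fluorescent penicillin V. Reactions of 80 μl contained 0.75 μM PBP3 and 0.1 μM Bocillin-FL in 50 mM Hepes (pH 8.0), 300 mM NaCl and 5% (v/v) glycerol, in black 384-well plates. FP (Excitation 490 nm, Emission 520 nm) was read for up to 60 minutes. EC50 is the concentration that halves PBP-bound Bocillin-FL.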
(In general: In fluorescence polarisation assays a small probe gives low polarisation when free and higher when bound to something large.)

The subject of assay [1] is N. gonorrhoeae ATCC 49226. The assay can be described thus: Liquid broth MIC in Fastidious broth. Type of assay: cell-based. Particulars: Neisseria gonorrhoeae, ATCC49226; N. gonorrhoeae strain ATCC 49226; Fastidious broth; read-out: Minimum Inhibitory Concentration, N. gonorrhoeae ATCC 49226. In outline: (§1)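 Colonies were swabbed from chocolate agar after 24 h growth and standardised by optical density at 600 nm. Compounds were serially diluted twofold in Fastidious broth, and bacteria added to give 5×10^5 CFU/mL. After about 24 h at 36 °C in 5% CO2, the lowest concentration allowing under 10% growth was taken as MIC.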

Another assay concerns N. gonorrhoeae FA1090. As to the kind of experiment: Liquid broth MIC in Fastidious broth. In kind it is cell-based. Particulars: Neisseria gonorrhoeae; N. gonorrhoeae strain FA1090; Fastidious broth; read-out: Minimum Inhibitory Concentration, N. gonorrhoeae FA1090. In outline:
as §1

The next assay deals with N. gonorrhoeae H041. As to the kind of experiment: Liquid broth MIC in Fastidious broth. In kind it is cell-based. To be noted: Neisseria gonorrhoeae, H041, read-out: Minimum Inhibitory Concentration, N. gonorrhoeae H041. The essentials: (§2)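 Broth microdilution against gonococcal strains expressing mosaic PBP2, starting inoculum 5×10^5 CFU/mL in Fastidious broth. Incubation runs ~24 h at 36 °C under 5% CO2, with MIC scored visually at <10% of full growth.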

The subject of a further assay is N. gonorrhoeae WHO G. As to the kind of experiment: Liquid broth MIC in Fastidious broth. In kind it is cell-based. To be noted: Neisseria gonorrhoeae; N. gonorrhoeae strain WHO G; Fastidious broth; read-out: Minimum Inhibitory Concentration, N. gonorrhoeae WHO G. In outline: as §1
The test system of the next assay is N. gonorrhoeae WHO K. As to the kind of experiment: Liquid broth MIC in Fastidious broth. In kind it is cell-based. Particulars: Neisseria gonorrhoeae, read-out: Minimum Inhibitory Concentration, N. gonorrhoeae WHO K. The essentials: as §2
In the next assay the test system is N. gonorrhoeae WHO L. The assay can be described thus: Liquid broth MIC in Fastidious broth. To be noted: Neisseria gonorrhoeae; N. gonorrhoeae strain WHO L; Fastidious broth; read-out: Minimum Inhibitory Concentration, N. gonorrhoeae WHO L. In kind it is cell-based. In outline: as §1
For a further assay, the system named is N. gonorrhoeae WHO Q. The assay can be described thus: Liquid broth MIC in Fastidious broth. In kind it is cell-based. To be noted: Neisseria gonorrhoeae, read-out: Minimum Inhibitory Concentration, N. gonorrhoeae WHO Q. In outline: as §2
For another assay, the system named is N. gonorrhoeae WHO Z. The assay can be described thus: Liquid broth MIC in Fastidious broth. To be noted: Neisseria gonorrhoeae, read-out: Minimum Inhibitory Concentration, N. gonorrhoeae WHO Z. In kind it is cell-based. In outline:
as §2

Molecules are shown by their SMILES. Converted amounts (≈) assume the structure as drawn.

T2 sequence (G3XD46 whole entry): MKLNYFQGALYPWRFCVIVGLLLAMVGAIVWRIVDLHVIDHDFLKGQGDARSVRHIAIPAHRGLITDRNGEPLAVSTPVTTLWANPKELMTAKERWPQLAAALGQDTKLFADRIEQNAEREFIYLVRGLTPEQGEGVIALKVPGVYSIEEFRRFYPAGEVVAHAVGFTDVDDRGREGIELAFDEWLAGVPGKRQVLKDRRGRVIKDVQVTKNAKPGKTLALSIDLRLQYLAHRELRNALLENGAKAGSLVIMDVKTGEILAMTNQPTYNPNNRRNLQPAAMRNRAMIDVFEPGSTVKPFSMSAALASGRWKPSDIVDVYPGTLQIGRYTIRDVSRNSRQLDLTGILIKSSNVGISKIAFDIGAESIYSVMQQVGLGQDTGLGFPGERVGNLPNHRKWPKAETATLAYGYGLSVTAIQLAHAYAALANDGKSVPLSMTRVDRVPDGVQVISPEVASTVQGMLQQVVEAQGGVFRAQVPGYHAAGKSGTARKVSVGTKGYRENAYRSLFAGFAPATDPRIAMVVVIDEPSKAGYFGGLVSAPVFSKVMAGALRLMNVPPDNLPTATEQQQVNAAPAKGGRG
T1 sequence (P0AD68 1-577): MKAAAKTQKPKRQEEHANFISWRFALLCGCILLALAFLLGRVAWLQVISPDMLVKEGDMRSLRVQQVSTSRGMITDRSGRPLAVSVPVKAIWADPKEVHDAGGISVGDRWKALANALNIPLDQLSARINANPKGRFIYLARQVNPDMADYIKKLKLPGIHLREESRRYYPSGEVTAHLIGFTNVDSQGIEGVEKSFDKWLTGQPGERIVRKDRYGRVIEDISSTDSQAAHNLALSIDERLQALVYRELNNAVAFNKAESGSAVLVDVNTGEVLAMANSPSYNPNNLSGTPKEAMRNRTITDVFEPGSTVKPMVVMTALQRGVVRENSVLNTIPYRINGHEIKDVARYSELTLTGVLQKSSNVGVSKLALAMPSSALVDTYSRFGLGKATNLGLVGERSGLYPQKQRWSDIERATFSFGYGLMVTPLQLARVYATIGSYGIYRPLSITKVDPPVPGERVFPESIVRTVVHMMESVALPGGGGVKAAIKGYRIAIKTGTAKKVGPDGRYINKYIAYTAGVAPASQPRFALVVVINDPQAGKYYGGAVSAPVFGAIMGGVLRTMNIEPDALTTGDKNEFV

By EC50 is commonly meant the midpoint of the concentration-response curve. High values mean a need for much substance, low ones an effect from little substance. `NCCN1CCN(C(=O)N[C@@H](C(=O)N[C@H]2Cc3cccc(C(=O)O)c3OB2O)c2ccc(O)c(Cl)c2F)C(=O)C1=O` (single isomer, unassigned) [Example 186] registered an EC50 on E. coli K12 PBP3 of less than 30 µM. Also, the “P. aeruginosa PBP3 Potency” value on P. aeruginosa PBP3 is recorded as “D (D represents a potency <10 μM)”. Besides, the MIC in assay [1] was 16 to 32 µg/mL (≈ 27 to 54.1 µM); in the assay with N. gonorrhoeae FA1090, 0.25 to 0.5 µg/mL (≈ 0.422 to 0.845 µM); with N. gonorrhoeae H041, more than 64 µg/mL; in the assay on N. gonorrhoeae WHO G it was 4 to 8 µg/mL (≈ 6.76 to 13.5 µM); in the assay on N. gonorrhoeae WHO K, more than 64 µg/mL; in the assay on N. gonorrhoeae WHO L, more than 64 µg/mL. Moreover, the MIC in the assay with N. gonorrhoeae WHO Q and in the assay with N. gonorrhoeae WHO Z was more than 64 µg/mL each time.

As for `NCCN1CCN(C(=O)N[C@H](C(=O)N[C@H]2Cc3cccc(C(=O)O)c3OB2O)c2ccc(O)c(Cl)c2F)C(=O)C1=O` (single isomer, unassigned) [Example 187], the concentration for a half-maximal effect (EC50) on E. coli K12 PBP3 lay in the range of 30 to 500 µM. Moreover, the “P. aeruginosa PBP3 Potency” value at P. aeruginosa PBP3 is “B (B represents a potency between 30 μM and 500 μM inclusive)”. The MIC in assay [1] was more than 64 µg/mL; in the assay with N. gonorrhoeae FA1090, 4 to 8 µg/mL (≈ 6.76 to 13.5 µM); with N. gonorrhoeae H041 it was more than 64 µg/mL; with N. gonorrhoeae WHO G, more than 64 µg/mL; in the assay with N. gonorrhoeae WHO K, more than 64 µg/mL; with N. gonorrhoeae WHO L, more than 64 µg/mL. Besides, the MIC with N. gonorrhoeae WHO Q and in the assay with N. gonorrhoeae WHO Z was more than 64 µg/mL in each case.

The molecule `CS(=O)(=O)N1CCN(C(=O)N[C@@H](C(=O)N[C@H]2Cc3ccc(F)c(C(=O)O)c3OB2O)c2cc(F)c(O)c(O)c2Cl)C1=O` (single isomer, unassigned) [Example 189] displayed a 50% effective concentration (EC50) at E. coli K12 PBP3 of less than 30 µM. Further, the “P. aeruginosa PBP3 Potency” value on P. aeruginosa PBP3 was “D (D represents a potency <10 μM)”. For the same molecule, the MIC in assay [1] was 16 to 32 µg/mL (≈ 25.3 to 50.6 µM); in the assay with N. gonorrhoeae FA1090 it was 4 to 8 µg/mL (≈ 6.32 to 12.6 µM); in the assay on N. gonorrhoeae H041 it was more than 64 µg/mL; in the assay on N. gonorrhoeae WHO G, 16 to 32 µg/mL (≈ 25.3 to 50.6 µM); with N. gonorrhoeae WHO K, 16 to 32 µg/mL (≈ 25.3 to 50.6 µM); in the assay on N. gonorrhoeae WHO L, more than 64 µg/mL. Besides, the MIC with N. gonorrhoeae WHO Q and with N. gonorrhoeae WHO Z was 16 to 32 µg/mL (≈ 25.3 to 50.6 µM) throughout.

Molecule `NCCN1CCN(C(=O)N[C@@H](C(=O)N[C@H]2Cc3cccc(C(=O)O)c3OB2O)c2c(O)cc(O)cc2F)C(=O)C1=O` (single isomer, unassigned) [Example 194] registered a concentration giving a half-maximal response (EC50) on E. coli K12 PBP3 of less than 30 µM. The “P. aeruginosa PBP3 Potency” value on P. aeruginosa PBP3 is recorded as “D (D represents a potency <10 μM)”. Also, the MIC was 16 to 32 µg/mL (≈ 27.9 to 55.8 µM) in assay [1]; 1 to 2 µg/mL (≈ 1.74 to 3.49 µM) in the assay with N. gonorrhoeae FA1090; more than 64 µg/mL in the assay on N. gonorrhoeae H041; 4 to 8 µg/mL (≈ 6.98 to 14 µM) in the assay with N. gonorrhoeae WHO G; more than 64 µg/mL in the assay on N. gonorrhoeae WHO K; more than 64 µg/mL in the assay on N. gonorrhoeae WHO L. The MIC in the assay on N. gonorrhoeae WHO Q and with N. gonorrhoeae WHO Z was more than 64 µg/mL each time.

In turn, `NCCCN1CCN(C(=O)N[C@@H](C(=O)N[C@H]2Cc3cccc(C(=O)O)c3OB2O)c2c(O)cc(O)cc2F)C(=O)C1=O` (single isomer, unassigned) [Example 195] had a concentration for a half-maximal effect (EC50) on E. coli K12 PBP3 of less than 30 µM. Further, the “P. aeruginosa PBP3 Potency” value at P. aeruginosa PBP3 is “D (D represents a potency <10 μM)”. Besides, the MIC in assay [1] is 16 to 32 µg/mL (≈ 27.2 to 54.5 µM); with N. gonorrhoeae FA1090, 1 to 2 µg/mL (≈ 1.7 to 3.41 µM); in the assay with N. gonorrhoeae H041, more than 64 µg/mL; in the assay with N. gonorrhoeae WHO G, 4 to 8 µg/mL (≈ 6.81 to 13.6 µM); in the assay with N. gonorrhoeae WHO K, more than 64 µg/mL; in the assay with N. gonorrhoeae WHO L it was more than 64 µg/mL. The MIC in the assay with N. gonorrhoeae WHO Q and in the assay on N. gonorrhoeae WHO Z was more than 64 µg/mL throughout.

As for `NCCN1CCN(C(=O)N[C@@H](C(=O)N[C@H]2Cc3cccc(C(=O)O)c3OB2O)c2ccc(O)c([N+](=O)[O-])c2)C(=O)C1=O` (single isomer, unassigned) [Example 199], the EC50 at E. coli K12 PBP3 is less than 30 µM. Also, at P. aeruginosa PBP3, the “P. aeruginosa PBP3 Potency” value is given as “D (D represents a potency <10 μM)”. Besides, the MIC in assay [1] is 16 to 32 µg/mL (≈ 27.4 to 54.8 µM); in the assay on N. gonorrhoeae FA1090, 1 to 2 µg/mL (≈ 1.71 to 3.42 µM); with N. gonorrhoeae H041, more than 64 µg/mL; in the assay with N. gonorrhoeae WHO G, 16 to 32 µg/mL (≈ 27.4 to 54.8 µM); with N. gonorrhoeae WHO K it was more than 64 µg/mL; with N. gonorrhoeae WHO L, more than 64 µg/mL. Also, the MIC with N. gonorrhoeae WHO Q and in the assay with N. gonorrhoeae WHO Z was more than 64 µg/mL throughout.
